Literature values in patent US20190298722A1, “USE OF AN INHIBITOR OF THE DE NOVO SYNTHESIS OF PURINES, IN THE TREATMENT OF ADENYLOSUCCINATE LYASE DEFICIENCY” (ASSISTANCE PUBLIQUE-HOPITAUX DE PARIS, priority 2016, published 2019).

Key:
[1] = test system: ADSL deficiency patients; conditions: child; not confirmed by other studies (Jurecka et al. 2015); cited from earlier work
[2] = test system: brains of rats; conditions: infusion into the brains of rats; cited from earlier work
[3] = test system: ADSL deficiency patient; conditions: one patient, after 9 months of treatment; cited from earlier work

Compound	motor coordination and seizure control [1]	further results
O=C[C@H](O)[C@H](O)[C@H](O)CO [D-ribose]	improvement	
Nc1c(C(=O)N[C@@H](CC(=O)O)C(=O)O)ncn1[C@@H]1O[C@H](CO)[C@@H](O)[C@H]1O [SAICAr, succinylaminoimidazole carboxamide riboside]		neuronal damage [2]: significant neuronal damage
C[S+](CC[C@H](N)C(=O)[O-])C[C@H]1O[C@@H](n2cnc3c(N)ncnc32)[C@H](O)[C@@H]1O (stereo partly shown) [SAMe, S-adenosyl-1-methionine]		clinical and biological parameters [3]: no improvement
O=c1ccn([C@@H]2O[C@H](CO)[C@@H](O)[C@H]2O)c(=O)[nH]1 [uridine]	improvement	
